The test system of the data set is CCRIS mutagenicity, Ames/micronucleus/aberration tests. In words: CCRIS mutagenicity studies.
[1] abbreviates: Test System: AMES SALMONELLA TYPHIMURIUM, Strain/Indicator: TA98, Metabolic Activation: NONE, Method: STANDARD PLATE.
Setting [2] is: Test System: AMES SALMONELLA TYPHIMURIUM, Strain/Indicator: TA98, Metabolic Activation: RAT, LIVER, S-9, AROCLOR 1254, Method: STANDARD PLATE.
Setting [3] is: Test System: AMES SALMONELLA TYPHIMURIUM, Strain/Indicator: TA100, Metabolic Activation: NONE, Method: STANDARD PLATE.
[4] abbreviates: Test System: AMES SALMONELLA TYPHIMURIUM, Strain/Indicator: TA100, Metabolic Activation: RAT, LIVER, S-9, AROCLOR 1254, Method: STANDARD PLATE.
[5] abbreviates: Test System: AMES SALMONELLA TYPHIMURIUM, Strain/Indicator: TA102, Metabolic Activation: NONE, Method: STANDARD PLATE.
Setting [6] is: Test System: AMES SALMONELLA TYPHIMURIUM, Strain/Indicator: TA102, Metabolic Activation: RAT, LIVER, S-9, AROCLOR 1254, Method: STANDARD PLATE.
The mark [7] stands for this setting: Test System: AMES SALMONELLA TYPHIMURIUM, Strain/Indicator: TA100, Metabolic Activation: NONE, Method: PREINCUBATION

Calls of active or inactive are those of the source. The rule behind the calls is not given here.

For the compound `Clc1cccnc1`, the mutagenic call was “inactive; negative” (Test System: AMES SALMONELLA TYPHIMURIUM, Strain/Indicator: TA97, Metabolic Activation: NONE, Method: STANDARD PLATE); “inactive; negative” (Test System: AMES SALMONELLA TYPHIMURIUM, Strain/Indicator: TA97, Metabolic Activation: RAT, LIVER, S-9, AROCLOR 1254, Method: STANDARD PLATE); “inactive; negative” under setting [1]; “inactive; negative” under setting [2]; “inactive; negative” under setting [3]; “inactive; negative” under setting [4]. Further, the mutagenic call under setting [5] was “inactive; negative”; the mutagenic call under setting [6] is “inactive; negative”; the mutagenic call (Test System: MOUSE LYMPHOMA, Strain/Indicator: L5178Y (TK+/TK-), Metabolic Activation: NONE) was “active; positive”; the mutagenic call (Test System: MOUSE LYMPHOMA, Strain/Indicator: L5178Y (TK+/TK-), Metabolic Activation: RAT, LIVER, S-9, AROCLOR 1254) is “active; positive”.
As for `Nc1ccccc1C(=O)C[C@H](N)C(=O)O`, the mutagenic call under setting [7] is “inactive; negative”.
On to `Nc1ccccc1SCSc1ccccc1N`, for which the mutagenic call by setting is: under setting [1], “inactive; negative”; under setting [2], “inactive; negative”; under setting [3], “inactive; negative”; under setting [4], “active; positive”.
Turning to `CCCCN(N)CCCC`, the mutagenic call reads like this: (Test System: AMES SALMONELLA TYPHIMURIUM, Strain/Indicator: TA100, Metabolic Activation: NONE, Method: PREINCUBATION (11 HR GROWTH PERIOD FOR BACTERIA)) “active; positive”; under setting [3], “inactive; negative”; under setting [4], “inactive; negative”; (Test System: AMES SALMONELLA TYPHIMURIUM, Strain/Indicator: TA100, Metabolic Activation: RAT, LIVER, S-9, PCB, Method: PREINCUBATION (11 HR GROWTH PERIOD FOR BACTERIA)) “inactive; negative”; (Test System: AMES SALMONELLA TYPHIMURIUM, Strain/Indicator: TA102, Metabolic Activation: NONE, Method: PREINCUBATION (5 HR GROWTH PERIOD FOR BACTERIA)) “active; positive”; (Test System: AMES SALMONELLA TYPHIMURIUM, Strain/Indicator: TA102, Metabolic Activation: NONE, Method: PREINCUBATION (7 HR GROWTH PERIOD FOR BACTERIA)) “inactive; negative”. In addition, the mutagenic call by setting is: under setting [5], “inactive; negative”; under setting [6], “inactive; negative”; (Test System: AMES SALMONELLA TYPHIMURIUM, Strain/Indicator: TA102, Metabolic Activation: RAT, LIVER, S-9, PCB, Method: PREINCUBATION (5 OR 7 HR GROWTH PERIOD FOR BACTERIA)) “inactive; negative”.
In the case of `Clc1cccc(-c2nc3ccccc3o2)c1`, under setting [1], the mutagenic call was “inactive; negative”.
Turning to `Cc1ccc2cc3c(ccc4ccccc43)cc2c1`, the mutagenic call (Test System: AMES SALMONELLA TYPHIMURIUM, Strain/Indicator: TA100, Metabolic Activation: RAT, INTACT HEPATOCYTES, AROCLOR 1254, Method: PREINCUBATION) is “active; positive”; the mutagenic call (Test System: AMES SALMONELLA TYPHIMURIUM, Strain/Indicator: TA100, Metabolic Activation: RAT, NADPH-FORTIFIED HOMOGENIZED HEPATOCYTES, AROCLOR 1254, Method: PREINCUBATION) was “active; positive”; the mutagenic call (Test System: AMES SALMONELLA TYPHIMURIUM, Strain/Indicator: TA100, Metabolic Activation: RAT, SONICATED HEPATOCYTES, AROCLOR 1254, Method: PREINCUBATION) is “active; positive”.
Turning to `Cc1cc(/C=C/c2ccc3cc(N(C)C)ccc3[n+]2C)c(C)n1-c1ccccc1`, the mutagenic call is, setting by setting: (Test System: AMES SALMONELLA TYPHIMURIUM, Strain/Indicator: TA98, Metabolic Activation: HUMAN, LIVER, S-9, Method: STANDARD PLATE) “active; positive”; (Test System: AMES SALMONELLA TYPHIMURIUM, Strain/Indicator: TA98, Metabolic Activation: NONE, Method: PREINCUBATION) “active; positive”; (Test System: AMES SALMONELLA TYPHIMURIUM, Strain/Indicator: TA98, Metabolic Activation: RAT, LIVER, S-9, AROCLOR 1254, Method: PREINCUBATION) “active; positive”; (Test System: AMES SALMONELLA TYPHIMURIUM, Strain/Indicator: TA100, Metabolic Activation: HUMAN, LIVER, S-9, Method: STANDARD PLATE) “active; positive”; under setting [7], “active; positive”; (Test System: AMES SALMONELLA TYPHIMURIUM, Strain/Indicator: TA100, Metabolic Activation: RAT, LIVER, S-9, AROCLOR 1254, Method: PREINCUBATION) “active; positive”. In addition, the mutagenic call (Test System: AMES SALMONELLA TYPHIMURIUM, Strain/Indicator: TA1535, Metabolic Activation: NONE, Method: STANDARD PLATE) is “inactive; negative”; the mutagenic call (Test System: AMES SALMONELLA TYPHIMURIUM, Strain/Indicator: TA1535, Metabolic Activation: RAT, LIVER, S-9, AROCLOR 1254, Method: STANDARD PLATE) was “inactive; negative”; the mutagenic call (Test System: AMES SALMONELLA TYPHIMURIUM, Strain/Indicator: TA1537, Metabolic Activation: NONE, Method: STANDARD PLATE) is “inactive; negative”; the mutagenic call (Test System: AMES SALMONELLA TYPHIMURIUM, Strain/Indicator: TA1537, Metabolic Activation: RAT, LIVER, S-9, AROCLOR 1254, Method: STANDARD PLATE) was “inactive; negative”; the mutagenic call (Test System: AMES SALMONELLA TYPHIMURIUM, Strain/Indicator: TA1538, Metabolic Activation: NONE, Method: STANDARD PLATE) is “inactive; negative”; the mutagenic call (Test System: AMES SALMONELLA TYPHIMURIUM, Strain/Indicator: UTH8413, Metabolic Activation: NONE, Method: PREINCUBATION) was “inactive; negative”. In addition, the mutagenic call is “active; positive” (Test System: AMES SALMONELLA TYPHIMURIUM, Strain/Indicator: UTH8414, Metabolic Activation: NONE, Method: PREINCUBATION) and “active; positive” (Test System: AMES SALMONELLA TYPHIMURIUM, Strain/Indicator: UTH8414, Metabolic Activation: RAT, LIVER, S-9, AROCLOR 1254, Method: PREINCUBATION).

Source of the values: PubChem BioAssay AID1259407 (Chemical Carcinogenesis Research Information System (CCRIS), 2018).
